Measured values reported in patent US6750228B1, “Aromatic sulfone hydroxamic acid metalloprotease inhibitor” (priority 1997, dated 2004).
Like-named read-outs stand apart in the source and are kept apart here.

How the values were obtained:
Assay in all cases: biochemical
MMP-2 = target: T1, MMP-2 (Homo sapiens, UniProt P08253); conditions: read-out: MMP-2 IC50
T1 construct: made in house; provided by Dr. Gregory Goldberg, Washington University
T1 sequence (P08253 110-660): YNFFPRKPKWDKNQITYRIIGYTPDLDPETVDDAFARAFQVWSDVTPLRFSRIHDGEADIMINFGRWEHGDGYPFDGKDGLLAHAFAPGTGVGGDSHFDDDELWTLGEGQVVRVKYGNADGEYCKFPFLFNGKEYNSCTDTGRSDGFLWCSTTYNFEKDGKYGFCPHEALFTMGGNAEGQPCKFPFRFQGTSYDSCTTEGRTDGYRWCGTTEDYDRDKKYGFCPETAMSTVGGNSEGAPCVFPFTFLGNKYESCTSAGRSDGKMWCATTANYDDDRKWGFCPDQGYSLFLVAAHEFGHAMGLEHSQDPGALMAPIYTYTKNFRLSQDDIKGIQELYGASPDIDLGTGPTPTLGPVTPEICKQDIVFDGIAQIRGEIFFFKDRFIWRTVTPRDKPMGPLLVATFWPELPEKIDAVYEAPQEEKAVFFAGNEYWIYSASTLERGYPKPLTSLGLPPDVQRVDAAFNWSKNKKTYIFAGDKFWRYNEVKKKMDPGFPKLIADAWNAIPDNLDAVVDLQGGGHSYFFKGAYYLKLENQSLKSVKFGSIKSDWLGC
Procedure, shortened: (§1)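 Assay buffer 100 mM Tris-HCl, 100 mM NaCl, 10 mM CaCl2, pH 7.5. Activated MMP + inhibitor, 5 min RT; then methoxycoumarin peptide substrate, 4 μM final. Readout fluorescence; IC50 calculated.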

MMP-13 = target: T2, MMP-13 (Homo sapiens, UniProt P45452); conditions: read-out: MMP-13 IC50
T2 construct: made in house; host or cells: baculovirus / insect cells
Procedure, shortened: as §1

MMP-1 = target: T3, MMP-1 (Homo sapiens, UniProt P03956); conditions: read-out: MMP-1 IC50
T3 construct: made in house; host or cells: transfected HT-1080 cells (provided by Dr. Harold Welgus, Washington University)
T3 sequence (P03956 100-469): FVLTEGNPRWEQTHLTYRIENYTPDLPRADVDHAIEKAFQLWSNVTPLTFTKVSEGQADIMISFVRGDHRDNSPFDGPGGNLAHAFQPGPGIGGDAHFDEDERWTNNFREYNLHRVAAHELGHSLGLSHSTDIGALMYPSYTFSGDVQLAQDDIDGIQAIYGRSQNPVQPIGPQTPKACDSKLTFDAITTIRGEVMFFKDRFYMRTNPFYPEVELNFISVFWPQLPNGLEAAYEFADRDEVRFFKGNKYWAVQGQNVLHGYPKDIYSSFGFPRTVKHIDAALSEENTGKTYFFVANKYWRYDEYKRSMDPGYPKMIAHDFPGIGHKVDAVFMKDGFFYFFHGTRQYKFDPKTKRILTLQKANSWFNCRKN
Procedure, shortened: as §1

[1] = recombinant human MMP-2, MCA peptide substrate 4 μM, pH 7.5, room temperature
[2] = recombinant human MMP-13, MCA peptide substrate 4 μM, pH 7.5, room temperature
[3] = recombinant human MMP-1, MCA peptide substrate 4 μM, pH 7.5, room temperature

| IC50 (MMP-2; [1]) [nM] | IC50 (MMP-13; [2]) [nM] | IC50 (MMP-1; [3]) [nM] | Structure (SMILES) | IC50 (MMP-2) [nM] | IC50 (MMP-13) [nM] | IC50 (MMP-1) [nM] |
| --- | --- | --- | --- | --- | --- | --- |
| 90 | 300 | > 10000 | O=C(NO)C1(S(=O)(=O)c2ccc(Oc3ccncc3)cc2)CCS(=O)(=O)CC1 [Example 160] |  |  |  |
| 72 | 14 | > 10000 | O=C(NO)C1(S(=O)(=O)c2ccc(N3CCCC(COCc4ccc(F)cc4)C3)cc2)CCOCC1 (stereo not drawn) [Example 505] |  |  |  |
| 5.7 | 4.3 | > 10000 | Cc1ccc(OC2CCN(c3ccc(S(=O)(=O)C4(C(=O)NO)CCOCC4)cc3)CC2)cc1 [Example 619] |  |  |  |
| 78 | 8.8 | > 10000 | O=C(NO)C1(S(=O)(=O)c2ccc(N3CCC(OCc4ccccc4F)CC3)cc2)CCOCC1 [Example 576] |  |  |  |
| 22.7 | 4.3 | > 10000 | O=C(NO)C1(S(=O)(=O)c2ccc(OC3CCC(OCc4cccc(Cl)c4)C3)cc2)CCOCC1 (stereo not drawn) [Example 669] |  |  |  |
| 480 | 30 | > 10000 | O=C(NO)C1(S(=O)(=O)c2ccc(N3CCN(c4cc(C(F)(F)F)ccn4)CC3)cc2)CCOCC1 [Example 534] |  |  |  |
| 700 | 5.5 | > 10000 | O=C(NO)C1(S(=O)(=O)c2ccc(N3CCC(OCc4ccc(COCC(F)(F)C(F)(F)F)cc4)CC3)cc2)CCOCC1 [Example 565] |  |  |  |
| 14.5 | 22 | > 10000 | O=C(NO)C1(S(=O)(=O)c2ccc(Oc3ccc(C(F)(F)F)cc3)cc2)CCN(S(=O)(=O)c2ccc(C(F)(F)F)cc2)CC1 [Example 143] |  |  |  |
| 700 | 670 | > 10000 | CCCCCN(C)C1CCN(c2ccc(S(=O)(=O)C3(C(=O)NO)CCOCC3)cc2)CC1 [Example 597] |  |  |  |
| 0.2 | 0.7 | > 10000 | CCCN(CC(=O)N1CCC(C(=O)NO)(S(=O)(=O)c2ccc(Oc3ccc(C(F)(F)F)cc3)cc2)CC1)CC1CC1 [Example 331] |  |  |  |
| 25.1 | 3.5 | > 10000 | O=C(Nc1ccc(F)cc1)OC1CCN(c2ccc(S(=O)(=O)C3(C(=O)NO)CCOCC3)cc2)CC1 [Example 191] |  |  |  |
| 270 | 7.7 | > 10000 | O=C(Nc1cccc(F)c1)C1CCN(c2ccc(S(=O)(=O)C3(C(=O)NO)CCOCC3)cc2)CC1 [Example 71] |  |  |  |
| 306 | 16.4 | > 10000 | CC(C)CCOc1ccc(COC2CCN(c3ccc(S(=O)(=O)C4(C(=O)NO)CCOCC4)cc3)CC2)cc1 [Example 478] |  |  |  |
| 0.2 | 2.7 | > 10000 | O=C(CCCCNCCO)N1CCC(C(=O)NO)(S(=O)(=O)c2ccc(Oc3ccc(C(F)(F)F)cc3)cc2)CC1 [Example 337] |  |  |  |
| 250 | 22.5 | > 10000 | O=C(NCc1ccccc1)OC1CCN(c2ccc(S(=O)(=O)C3(C(=O)NO)CCOCC3)cc2)CC1 [Example 520] |  |  |  |
| 1400 | 28.9 | > 10000 | O=C(NCC1CC1)C1CCN(c2ccc(S(=O)(=O)C3(C(=O)NO)CCOCC3)cc2)CC1 [Example 53] |  |  |  |
| 2000 | 10.6 | > 10000 | O=C(NO)C1(S(=O)(=O)c2ccc(N3CCC(OCc4ccc(COCC5CCCC5)cc4)CC3)cc2)CCOCC1 [Example 605] |  |  |  |
| 370 | 80 | > 10000 | O=C(Nc1cccnc1)OC1CCN(c2ccc(S(=O)(=O)C3(C(=O)NO)CCOCC3)cc2)CC1 [Example 465] |  |  |  |
| 220 | 10.6 | > 10000 | O=C(NO)C1(S(=O)(=O)c2ccc(N3CCC(OCc4ccccc4Cl)CC3)cc2)CCOCC1 [Example 574] |  |  |  |

More lines, now with the values behind:

| Structure (SMILES) | IC50 (MMP-2; [1]) [nM] | IC50 (MMP-13; [2]) [nM] | IC50 (MMP-1; [3]) [nM] | IC50 (MMP-2) [nM] | IC50 (MMP-13) [nM] | IC50 (MMP-1) [nM] |
| --- | --- | --- | --- | --- | --- | --- |
| O=C(NO)C1(S(=O)(=O)c2ccc(N3CC4CC3CN4Cc3ccccc3)cc2)CCOCC1 (stereo not drawn) [Example 493] | > 10000 | > 10000 | > 10000 |  |  |  |
| CSc1nccc(N2CCC(C(=O)NO)(S(=O)(=O)c3ccc(Oc4ccc(OC(F)(F)F)cc4)cc3)CC2)n1 [Example 410] | 0.25 | 0.6 | > 10000 |  |  |  |
| C=C(C)CC(=O)C1CCN(c2ccc(S(=O)(=O)C3(C(=O)NO)CCOCC3)cc2)CC1 [Example 759] | 60.8 | 3 | > 10000 |  |  |  |
| O=C(NO)C1(S(=O)(=O)c2ccc(N3CCC(OCc4ccc(COc5ccccc5)cc4)CC3)cc2)CCOCC1 [Example 613] | 30.7 | 8 | > 10000 |  |  |  |
| CCCN(CC(=O)N1CCC(C(=O)NO)(S(=O)(=O)c2ccc(N3CCC(C(=O)N4CC(C)CC(C)C4)CC3)cc2)CC1)CC1CC1 (stereo not drawn) [Example 292] | > 10000 | 100 | > 10000 |  |  |  |
| Cc1cccc(S(=O)(=O)N2CCN(c3ccc(S(=O)(=O)C4(C(=O)NO)CCOCC4)cc3)CC2)c1 [Example 671] | 130 | 6 | > 10000 |  |  |  |
| CC1CCCN(C(=O)C2CCN(c3ccc(S(=O)(=O)C4(C(=O)NO)CCOCC4)cc3)CC2)C1 (stereo not drawn) [Example 47] |  |  |  | 6000 | 11.4 | > 10000 |
| O=C(NO)C1(S(=O)(=O)c2ccc(N3CCC(OCc4ccc(F)c(C(F)(F)F)c4)CC3)cc2)CCN(C2CC2)CC1 [Example 408] | 800 | 25.1 | > 10000 |  |  |  |
| CS(=O)(=O)N1CCC(C2CCN(c3ccc(S(=O)(=O)C4(C(=O)NO)CCOCC4)cc3)CC2)CC1 [Example 793] | 23.5 | 4 | > 10000 |  |  |  |
| O=C(NO)C1(S(=O)(=O)c2ccc(N3CCC(n4c(=O)[nH]c5ccccc54)CC3)cc2)CCOCC1 [Example 211] | 1200 | 11.4 |  |  |  | > 10000 |
| O=C(CCc1cnc[nH]1)N1CCC(C(=O)NO)(S(=O)(=O)c2ccc(Oc3ccc(OC(F)(F)F)cc3)cc2)CC1 [Example 350] | < 0.1 | 0.1 | 6000 |  |  |  |
| O=C(c1ccco1)N1CCC(C(=O)NO)(S(=O)(=O)c2ccc(N3CCC(OCc4ccc(F)c(C(F)(F)F)c4)CC3)cc2)CC1 [Example 433] | 3500 | 450 | > 10000 |  |  |  |
| CONCC(=O)N1CCC(C(=O)NO)(S(=O)(=O)c2ccc(N3CCC(C(=O)N4CC(C)CC(C)C4)CC3)cc2)CC1 (stereo not drawn) [Example 312] | > 10000 | 200 | > 10000 |  |  |  |
| C[C@@H]1C[C@H](C)CN(C(=O)C2CCN(c3ccc(S(=O)(=O)C4(C(=O)NO)CCN(C(=O)OC(C)(C)C)CC4)cc3)CC2)C1 [Example 241, rel-1,1-Dimethylethyl 4-[[4-[4-[[(3R,5S)-3,5-Dimethyl-1-piperidinyl]carbonyl]-1-piperidinyl]-phenyl]sulfonyl]-4-[(hydroxyamino)carbonyl]-1-piperidinecarboxylate] | > 10000 | 4.8 | > 10000 |  |  |  |
| O=C(NO)C1(S(=O)(=O)c2ccc(N3CCc4ccccc4C3)cc2)CCN(C2CC2)CC1 [Example 455] | 26.8 | 6.3 | > 10000 |  |  |  |
| COc1ccc(C(=O)C2CCN(c3ccc(S(=O)(=O)C4(C(=O)NO)CCN(C(=O)OCc5ccccc5)CC4)cc3)CC2)cc1 [Example 435] | 1500 | 5.9 | > 10000 |  |  |  |
| COc1ccc(CCCOC2CCN(c3ccc(S(=O)(=O)C4(C(=O)NO)CCOCC4)cc3)CC2)cc1OC [Example 811] | 110 | 14.8 | > 10000 |  |  |  |
| O=C(c1ccccc1)N1CCN(c2ccc(S(=O)(=O)C3(C(=O)NO)CCOCC3)cc2)CC1 [Example 593] | 650 | 420 | > 10000 |  |  |  |
| COCCN1CCC(C(=O)NO)(S(=O)(=O)c2ccc(N3CCC(OCc4ccc(Cl)cc4)CC3)cc2)CC1 [Example 445] | 1200 | 90 | > 10000 |  |  |  |
| C=CCOC1CCN(c2ccc(S(=O)(=O)C3(C(=O)NO)CCOCC3)cc2)CC1 [Example 635] | 260 | 13.9 | > 10000 |  |  |  |
